Test results: PMC11477482 (Molecules, 2024)
Entries after “also recorded” stand apart in the source; their conditions may differ.

Legend:
[1] = tested on: RAW264.7 cells (mitochondrial O2− production); assay: Mitochondrial antioxidant activity (MitoSOX, rotenone-induced superoxide); format: cell-based, mouse; details: 500 μM; for mitochondrial antioxidant activity: rotenone 20 μM
Procedure: (§1) The human keratinocytes (HaCaT, CLS 300493, Eppelheim, Germany) cell line was cultured with Dulbecco’s Modified Eagle’s Medium (DMEM) (Sigma-Aldrich, St. Louis, MO, USA), supplemented with 10% (v/v) of heat-inactivated fetal bovine serum (FBS), 1% (v/v) antibiotic solution (from a 10,000 U/mL penicillin and 10,000 μg/mL streptomycin stock) (Gibco, Carlsbad, CA, USA), 3.7 g/L sodium bicarbonate, and 1 mM sodium pyruvate (Sigma-Aldrich, St. Louis, MO, USA). The cell culture of keratinocytes was detached with EDTA solution 1X (Sigma-Aldrich, St. Louis, MO, USA) when the cells reached 70–80% confluence in cell culture flasks. The mouse macrophage cell line (RAW 264.7, ATCC TIB-71, Manassas, VA, USA) was cultured in DMEM supplemented with 10% (v/v) non-inactivated FBS, 1% (v/v) antibiotic solution, 1.5 g/L sodium bicarbonate, and 1 mM sodium pyruvate. Macrophages were mechanically detached with a cell scraper and subcultured in (1:10) proportion of cellular suspension to a final volume of DMEM. The human monocytic cell line THP-1 (ATCC® TIB-202™, American Type Culture Collection, Manassas, VA, USA) was cultivated in RPMI 1640 supplemented with 10% inactivated FBS, 25 mM (D)-glucose, 10 mM HEPES, 1 mM sodium pyruvate, 100 U/mL penicillin, and 100 μg/mL streptomycin, and maintained at a cell density of 0.4 × 10^6 cells/mL. Cells were subcultured every 2 or 3 days and maintained in culture for 2–3 months, according to ATCC® instructions.
Mitochondrial superoxide (O2^−) generation was determined using the MitoSOX Red kit, according to the manufacturer’s instructions. Briefly, 5.0 × 10^5 cells/mL were plated in a 12-well plate and incubated for 24 h at 37 °C. The cells were then exposed to the AA, AAG and AAGS solution (500 µM), and after 1 h, rotenone (20 μM) was added, followed by incubation for an additional 5 h. The cells were then carefully detached, transferred to microtubes, and centrifuged at 500× g for 3 min. The cell pellet was washed with HBSS solution (2 × 1 mL), resuspended in PBS solution, and 300 µL was collected in two microtubes for unstained (150 µL) and stained (150 µL) conditions. The stained cells were incubated with 100 μL of freshly prepared MitoSOX solution 2.5 µM at 37 °C for 15 min in the dark. The stained cells were washed with HBSS solution (2 × 1 mL), and the cell pellet was resuspended in 100 μL of PBS and analyzed by flow cytometry using a BD Accuri™ C6 cytometer (San Jose, CA, USA).
(§2) CD86 and CD54 levels were analyzed by flow cytometry using the acquisition channels FL1 and FL4. Mitochondrial O2^− production was measured by flow cytometry using the acquisition channel FL2. The relative fluorescence intensity (RFI) of CD86 and CD54 (THP-1 maturation assay) and MitoSOX (mitochondrial antioxidant activity) in the control and chemical-treated cells, based on the geometric mean fluorescence intensity (MFI), was calculated according to the following equation: RFI=MFI of chemical treated cells−MFI of chemical treated unstained cells/MFI of control treated cells−MFI of control unstained cells ×100

[2] = tested on: THP-1 cells (DNFB-induced CD54 and CD86 expression); assay: Inhibition of THP-1 maturation induced by the allergen DNFB (anti-allergic activity); format: cell-based, human; details: DNFB 8 µM
Procedure: as §1
Following OECD guidelines, researchers utilized the THP-1 human monocyte cell line as a substitute for dendritic cells (DCs) to assess skin sensitization potential. Adapting OECD Test Guideline No. 442E [24], cell density was adjusted to 5.0 × 10^5 cells/mL and allowed to stabilize overnight at 37 °C. Then, 1.5 mL/well of cell suspension was added to a 12-well plate, and solutions of AA, AAG, and AAGS (500 µM) were applied. After 1 h of pre-incubation, a solution of DNFB was added (8 µM), and the cells were further incubated for 24 h. Afterwards, the cells were centrifuged at 300× g for 5 min, the supernatant was discarded, and the cell pellet was washed with PBS containing 1% FBS (2 × 1 mL) and centrifuged. The cell pellet was resuspended in 1 mL of PBS/1% FBS and 200 µL were collected in two microtubes: 100 µL for the unstained (UNST) and 100 µL for the stained (CD5486) conditions. For each stained condition, anti-CD54-APC and anti-CD86-Alexa Fluor 488 (BioLegend, London, UK) were added, and the cells were incubated for 30 min at 4 °C, protected from light. Then, cells were washed twice with 1 mL PBS/1% FBS solution and centrifuged. The cell pellet was further resuspended in 100 µL of PBS and analyzed by flow cytometry using a BD Accuri™ C6 cytometer (San Jose, CA, USA).
as §2
The results of at least three independent experiments were represented as a percentage of the control RFI, which was assumed to be 100%.

[3] = DPPH radical scavenging assay; details: ethanol, 15 min in the dark, 517 nm; ± SD
Procedure: Stock solutions of each compound (100 µM) and DPPH solution (150 µM) were prepared in ethanol. Different concentrations of antioxidant solutions (0.1–50 µM) were prepared to test their antioxidant effect. In a 96-well plate, 100 µL of DPPH working solution was added to a 100 µL sample solution and incubated at room temperature for 15 min in the dark. The absorbance of each sample was measured at 517 nm, in a microplate reader. For the negative control, 100 μL ethanol was added instead of the antioxidant solution. Rutin was used as the positive control. Inhibition curves were constructed, and the half maximal effective concentration (EC50) values were calculated for all samples by linear regression for the three independent assays performed.

[4] = compound 500 µM, 1 h pre-incubation, 24 h, mean ± SEM

EC50 [3] [µM] | Compound | pro-oxidant profile [1] | mitochondrial antioxidant activity [1] | anti-allergic profile regarding CD86 ([2]; 500 µM) | inhibition of DNFB-induced maturation of THP-1 cells ([2]; 500 µM) | RFI of CD54 expression, DNFB-induced maturation [2, 4] | RFI of CD86 expression, DNFB-induced maturation [2, 4]
5.28 ± 0.36 | O=C1OC(C(COS(=O)(=O)O)OS(=O)(=O)O)C(OS(=O)(=O)O)=C1OC1OC(COS(=O)(=O)O)C(OS(=O)(=O)O)C(OS(=O)(=O)O)C1OS(=O)(=O)O [AAGS, 2-O-α-D-glucopyranosyl-L-ascorbic acid persulfate] | non-prooxidant; also recorded: AA, AAG, and AAGS with no pro-oxidant profile % inhibition of rotenone-induced SO2^− production: AA > AAG > AAGS | did not demonstrate an ability to exert antioxidant activity in mitochondria | exhibited anti-allergic profile | anti-allergic activity | 986.89% ± 80.51% | 168.90% ± 16.30%
1.54 ± 0.21 | O=C1O[C@H]([C@@H](O)CO)C(O)=C1O [AA, Ascorbic acid] | AA, AAG, and AAGS with no pro-oxidant profile % inhibition of rotenone-induced SO2^− production: AA > AAG > AAGS |  | exhibited anti-allergic profile |  |  | 
9.15 ± 0.13 | O=C1O[C@H]([C@@H](O)CO)C(O)=C1O[C@H]1O[C@H](CO)[C@@H](O)[C@H](O)[C@H]1O [AAG, 2-O-α-D-glucopyranosyl-L-ascorbic acid] | AA, AAG, and AAGS with no pro-oxidant profile % inhibition of rotenone-induced SO2^− production: AA > AAG > AAGS | did not demonstrate an ability to exert antioxidant activity in mitochondria |  |  | 995.78% ± 80.51% | 
